Experimental findings from US20160355530A1, “HEPATITIS C INHIBITORS AND USES THEREOF” (AbbVie Inc., priority 2010, published 2016) are described below.

Where two headings read alike, the source gives them in different places.

Experiment [1] has as its system HCV 1a-H77 subgenomic replicon. The experiment can be described thus: microbe, parasite or virus in culture. It is filed as cell-based, HCV genotype 1a. The following applies: Hepatitis C virus, stable replicon.
The target of experiment [2] is T1, HCV NS5B polymerase 1b BK strain (Hepatitis C virus genotype 1b, UniProt P26663).
T1 construct: six-histidine tag; made in house; host or cells: E. coli
T1 sequence (P26663 2420-2989): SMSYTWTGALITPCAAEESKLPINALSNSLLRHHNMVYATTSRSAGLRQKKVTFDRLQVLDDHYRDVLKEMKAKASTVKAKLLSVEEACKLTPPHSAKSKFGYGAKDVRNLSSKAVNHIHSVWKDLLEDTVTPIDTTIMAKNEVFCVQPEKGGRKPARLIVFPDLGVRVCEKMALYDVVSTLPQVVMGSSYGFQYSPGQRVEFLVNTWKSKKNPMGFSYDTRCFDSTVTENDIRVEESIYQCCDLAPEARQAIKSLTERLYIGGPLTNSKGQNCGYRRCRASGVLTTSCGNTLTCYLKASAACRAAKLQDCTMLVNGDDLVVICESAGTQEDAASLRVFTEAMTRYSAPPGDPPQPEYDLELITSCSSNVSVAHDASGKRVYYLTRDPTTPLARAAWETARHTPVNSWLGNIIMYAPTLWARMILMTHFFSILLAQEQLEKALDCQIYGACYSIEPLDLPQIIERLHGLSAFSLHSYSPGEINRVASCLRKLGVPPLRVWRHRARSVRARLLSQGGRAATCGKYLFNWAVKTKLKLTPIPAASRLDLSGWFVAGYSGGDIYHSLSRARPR
The experiment is described as follows: HCV NS5B polymerase enzymatic inhibition assay, strain 1b BK. The experiment is classed as biochemical. The following applies: enzyme, strain 1b BK; read-out: HCV Polymerase Strain 1b BK IC50. As to the method: (§1) Purified HCV NS5B polymerase enzymes were used for polymerase inhibition assays. All recombinant HCV polymerases contained the first 570 amino acids of the 591 amino acid native protein sequence and a six-histidine tag at the N-terminus or C-terminus to facilitate purification by affinity chromatography. The DNA nucleotide sequence for the HCV polymerase 1b BK strain was codon optimized for expression in E. coli. A synthetic gene was prepared from a series of overlapping oligonucleotides that were filled in using a DNA polymerase and amplified by PCR. The patient isolate HCV polymerases were cloned by RT-PCR methods using HCV RNA extracted from the serum of infected subjects obtained from ProMedDx and BioCollections (genotypes 2a, 2b, 3a, and 4a). Laboratory strains were cloned from plasmid DNA (1a-H77 or 1a-H77-C316Y) or from existing replicon cells (1b Rice). In all cases the amplified DNA was cloned into a protein expression vector (typically a pET vector from Novagen) and then multiple clones were sequenced to identify one whose NS5B sequence agreed with the population sequence. This sequence-confirmed clone was then transfected into E. coli for protein expression and purification. E. coli cultures were grown to a maximum optical density (OD) of 2-3 and then induced with 0.4 mM isopropyl beta-D-thiogalactopyranoside (IPTG) and grown for 20 hours at 20° C.
(§2) Proteins were purified using nickel affinity chromatography, and additional column steps were added including, ion exchange, size exclusion, hydrophobic ion, and poly-U affinity chromatography, as needed, depending on the sample being purified. The template RNA used in the polymerase enzymatic assay was a 2.1 kb construct that corresponds to the 3′-end of an HCV genotype 1b negative strand RNA.
(§3) The reaction was initiated by the addition of 20 μM CTP, 20 μM ATP, 0.284 μM (0.5 μCi) of 5,6-[^3H] UTP, 5 nM template RNA and 0.1 U/μL RNase inhibitor (RNasin, Promega), and allowed to proceed for three hours at 30° C. The final reaction volume was 50 μL. The reaction was terminated by the addition of 50 uL of 4 mM spermine in 10 mM Tris-HCl, pH 7.5, 1 mM EDTA. The quenched reaction was allowed to incubate for at least 15 minutes at room temperature, and then the precipitated RNA was captured by filtration through a glass fiber filter (GF/B, Millipore) in a 96 well format. The filter plate was washed five times with 200 μL of 2 mM spermine, 10 mM Tris-HCl, pH 8.0, 1 mM EDTA, and two times with ethanol. After drying thoroughly in air, 30 μL of Microscint-20 scintillation cocktail (Perkin Elmer) was added to each well, and the retained cpm were determined by scintillation counting. IC50 values were determined by nonlinear regression.
(§4) % Inhibition=100*[[I]/([I]+[IC50])] equation 1
(§5) V=kcat[S]/2(Km+[S])*(sqrt((IC50+I−E)̂2+(4*IC50*E))−(IC50+I−E)) equation 2

Experiment [3] has as its system HCV 1b-BB7 subgenomic replicon. The experiment can be described thus: microbe, parasite or virus in culture. It is filed as cell-based, HCV genotype 1b. The following applies: Hepatitis C virus, stable replicon.
For experiment [4], the target named is T2, HCV NS5B polymerase 1a-H77 (Hepatitis C virus genotype 1a, UniProt P27958).
T2 construct: six-histidine tag; made in house; host or cells: E. coli
T2 sequence (P27958 2421-2990): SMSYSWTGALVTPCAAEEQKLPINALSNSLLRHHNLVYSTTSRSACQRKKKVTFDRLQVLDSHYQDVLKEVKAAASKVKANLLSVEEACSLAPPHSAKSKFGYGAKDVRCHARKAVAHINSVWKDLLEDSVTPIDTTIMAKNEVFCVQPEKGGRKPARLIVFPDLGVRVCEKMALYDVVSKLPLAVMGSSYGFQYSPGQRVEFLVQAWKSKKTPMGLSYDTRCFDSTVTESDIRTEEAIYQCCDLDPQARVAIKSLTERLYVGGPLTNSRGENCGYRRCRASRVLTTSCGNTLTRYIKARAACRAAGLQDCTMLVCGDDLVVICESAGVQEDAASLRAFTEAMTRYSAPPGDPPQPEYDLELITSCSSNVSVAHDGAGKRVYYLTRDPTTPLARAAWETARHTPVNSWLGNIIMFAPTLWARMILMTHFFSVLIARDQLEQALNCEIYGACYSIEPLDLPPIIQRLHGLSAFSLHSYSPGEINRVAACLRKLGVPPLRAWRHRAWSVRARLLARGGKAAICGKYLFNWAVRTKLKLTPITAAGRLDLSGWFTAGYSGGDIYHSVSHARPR
The experiment is described as follows: biochemical. On the set-up: species or system HCV genotype 1a. The conditions noted are these: enzyme, strain 1a H77; read-out: HCV Polymerase Strain 1a H77 IC50. As to the method: as §1, §2, §3, §4, §5

The mark [5] stands for this setting: 5% FBS, absence of human plasma, read-out: Stable Replicon 1a H77 5% FBS EC50.
The mark [6] stands for this setting: strain 1a H77, 5% FBS + 40% human plasma, read-out: 1a H77 5% FBS + 40% Human Plasma EC50.
Setting [7] is: strain 1a H77, 5% FBS, no human plasma, read-out: 1a H77 5% FBS EC50.
Where [8] appears, read: strain 1a H77, 5% FBS, read-out: 1a H77 5% FBS EC50.
[9] abbreviates: strain 1b BB7, 5% FBS + 40% human plasma, read-out: 1b BB7 5% FBS + 40% Human Plasma EC50.
The mark [10] stands for this setting: strain 1b BB7, 5% FBS, no human plasma, read-out: 1b BB7 5% FBS EC50.
Where [11] appears, read: strain 1b BB7, 5% FBS, read-out: 1b BB7 5% FBS EC50.

In the case of `CC(C)(C)[Si](C)(C)OCCCCN(c1cc2oc(-c3ccc(F)cc3)c(-c3ncc[nH]3)c2cc1C1CC1)S(C)(=O)=O` [Example 42, N-(4-{[tert-butyl(dimethyl)silyl]oxy}butyl)-N-[5-cyclopropyl-2-(4-fluorophenyl)-3-(1H-imidazol-2-yl)-1-benzofuran-6-yl]methanesulfonamide], the EC50 in experiment [1] (setting [5]) was determined as 0.214 µM; in experiment [1] (setting [6]), 7.41 µM; in experiment [1] (setting [7]), 0.214 µM; in experiment [1] (setting [8]), 0.214 µM; in experiment [3] (setting [9]), 3.39 µM; in experiment [3] (setting [10]) it was 0.119 µM. In addition, in experiment [3] (setting [11]), the half-maximal effective concentration (EC50) is 0.119 µM. Besides, the values for the IC50 in experiment [2] and in experiment [4] were 0.781 µM and 0.083 µM, respectively.

Consider `CS(=O)(=O)N(CN1C(=O)c2ccccc2C1=O)c1cc2oc(-c3ccc(F)cc3)c(-c3ncc[nH]3)c2cc1C1CC1` [Example 82, N-[5-cyclopropyl-2-(4-fluorophenyl)-3-(1H-imidazol-2-yl)-1-benzofuran-6-yl]-N-[(1,3-dioxo-1,3-dihydro-2H-isoindol-2-yl)methyl]methanesulfonamide], for which the EC50 came out at 2.63 µM in experiment [1] (setting [5]); 2.63 µM in experiment [1] (setting [7]); 2.63 µM in experiment [1] (setting [8]); 1.58 µM in experiment [3] (setting [10]); 1.58 µM in experiment [3] (setting [11]). For the same compound, the figures for the IC50 in experiment [2] and in experiment [4] were 3 µM and 0.35 µM, respectively.

Consider `CC(C)CCN(c1cc2oc(-c3ccc(F)cc3)c(C3=NOC(C)(C)N3)c2cc1C1CC1)S(C)(=O)=O` [Example 152, N-[5-cyclopropyl-3-(5,5-dimethyl-4,5-dihydro-1,2,4-oxadiazol-3-yl)-2-(4-fluorophenyl)-1-benzofuran-6-yl]-N-(3-methylbutyl)methanesulfonamide], for which the EC50 in experiment [1] (setting [5]), in experiment [1] (setting [7]), in experiment [1] (setting [8]), in experiment [3] (setting [10]) and in experiment [3] (setting [11]) was 10 µM in each case. For the same compound, the 50% inhibitory concentration (IC50) in experiment [2] is 3.6 µM; in experiment [4] it was 0.118 µM.

Consider `CCCc1nc(-c2c(-c3ccc(F)cc3)oc3cc(N(CCC(C)C)S(C)(=O)=O)c(C4CC4)cc23)no1` [Example 153, N-[5-cyclopropyl-2-(4-fluorophenyl)-3-(5-propyl-1,2,4-oxadiazol-3-yl)-1-benzofuran-6-yl]-N-(3-methylbutyl)methanesulfonamide], for which the figures for the half-inhibitory concentration (IC50) in experiment [2] and in experiment [4] were 200 µM and 179 µM, respectively.

Turning to `CCCC1NC(c2c(-c3ccc(F)cc3)oc3cc(N(CCC(C)C)S(C)(=O)=O)c(C4CC4)cc23)=NO1` (stereo not drawn) [Example 154, N-[5-cyclopropyl-2-(4-fluorophenyl)-3-(5-propyl-4,5-dihydro-1,2,4-oxadiazol-3-yl)-1-benzofuran-6-yl]-N-(3-methylbutyl)methanesulfonamide], the IC50 was found to be 63.3 µM in experiment [2] and 21.3 µM in experiment [4].

Consider `COc1ccc(CN(c2cc3oc(-c4ccc(F)cc4)c(C4=NOCC(=O)N4)c3cc2C2CC2)S(C)(=O)=O)cc1` [Example 160, N-[5-cyclopropyl-2-(4-fluorophenyl)-3-(5-oxo-5,6-dihydro-4H-1,2,4-oxadiazin-3-yl)-1-benzofuran-6-yl]-N-(4-methoxybenzyl)methanesulfonamide], for which the concentration for a half-maximal effect (EC50) worked out at 2.16 µM in experiment [1] (setting [5]); 10 µM in experiment [1] (setting [6]); 2.16 µM in experiment [1] (setting [7]); 2.16 µM in experiment [1] (setting [8]); 9.28 µM in experiment [3] (setting [9]); 0.604 µM in experiment [3] (setting [10]). Moreover, the 50% effective concentration (EC50) in experiment [3] (setting [11]) is 0.604 µM. In addition, the half-maximal inhibitory concentration (IC50) in experiment [2] turned out to be 0.93 µM; in experiment [4] it was 0.11 µM.

For the compound `CS(=O)(=O)Nc1cc2oc(-c3ccc(F)cc3)c(-c3nc(Cl)c(Cl)[nH]3)c2cc1C1CC1` [Example 163, N-[5-cyclopropyl-3-(4,5-dichloro-1H-imidazol-2-yl)-2-(4-fluorophenyl)-1-benzofuran-6-yl]methanesulfonamide], the EC50 is 7.83 µM in experiment [1] (setting [5]); 10 µM in experiment [1] (setting [6]); 7.83 µM in experiment [1] (setting [7]); 7.83 µM in experiment [1] (setting [8]); 10 µM in experiment [3] (setting [9]); 5.4 µM in experiment [3] (setting [10]). Further, in experiment [3] (setting [11]), the EC50 came to 5.4 µM. The half-maximal inhibitory concentration (IC50) in experiment [2] was determined as 0.555 µM; in experiment [4] it was 0.212 µM.

`CS(=O)(=O)Nc1cc2oc(-c3ccc(F)cc3)c(-c3nc(Cl)c[nH]3)c2cc1C1CC1` [Example 164, N-[3-(4-chloro-1H-imidazol-2-yl)-5-cyclopropyl-2-(4-fluorophenyl)-1-benzofuran-6-yl]methanesulfonamide]: the EC50 in experiment [1] (setting [5]) came out at 1 µM; in experiment [1] (setting [6]), 10 µM; in experiment [1] (setting [7]), 1 µM; in experiment [1] (setting [8]), 1 µM; in experiment [3] (setting [9]), 10 µM; in experiment [3] (setting [10]) it was 1 µM. In addition, in experiment [3] (setting [11]), the EC50 was 1 µM. For the same compound, the 50% inhibitory concentration (IC50) stood at 0.906 µM in experiment [2] and 0.136 µM in experiment [4].

On to `CS(=O)(=O)Nc1cc2oc(-c3ccc(F)cc3)c(-c3nc(Br)c(Br)[nH]3)c2cc1C1CC1` [Example 165, N-[5-cyclopropyl-3-(4,5-dibromo-1H-imidazol-2-yl)-2-(4-fluorophenyl)-1-benzofuran-6-yl]methanesulfonamide], for which the values for the IC50 in experiment [2] and in experiment [4] were 2.7 µM and 1.5 µM, respectively.

Take `Cc1ccc(C)n1-c1ccc2c(-c3ncc[nH]3)c(-c3ccccc3)oc2c1` [Example 166, 2-[6-(2,5-dimethyl-1H-pyrrol-1-yl)-2-phenyl-1-benzofuran-3-yl]-1H-imidazole]: the values for the half-inhibitory concentration (IC50) in experiment [2] and in experiment [4] were 7 µM and 1.6 µM, respectively.

As to `CC(C)CCN(c1cc2oc(-c3ccc(F)cc3)c(-c3nc(C(F)(F)F)c[nH]3)c2cc1C1CC1)S(C)(=O)=O` [Example 171, N-{5-cyclopropyl-2-(4-fluorophenyl)-3-[4-(trifluoromethyl)-1H-imidazol-2-yl]-1-benzofuran-6-yl}-N-(3-methylbutyl)methanesulfonamide], the concentration giving a half-maximal response (EC50) is 7.62 µM in experiment [1] (setting [5]); 7.62 µM in experiment [1] (setting [7]); 7.62 µM in experiment [1] (setting [8]); 9.27 µM in experiment [3] (setting [10]); 9.27 µM in experiment [3] (setting [11]). The IC50 in experiment [2] is 88.7 µM; in experiment [4], 2.86 µM.

As for `COc1ccc(CN(c2cc3oc(-c4ccc(F)cc4)c(-c4nc(C)c(C)[nH]4)c3cc2C2CC2)S(C)(=O)=O)cc1` [Example 186, N-[5-cyclopropyl-3-(4,5-dimethyl-1H-imidazol-2-yl)-2-(4-fluorophenyl)-1-benzofuran-6-yl]-N-(4-methoxybenzyl)methanesulfonamide], the IC50 in experiment [2] and in experiment [4] was 4.5 µM in each case.

Turning to `Cc1nc(-c2c(-c3ccc(F)cc3)oc3cc(NS(C)(=O)=O)c(C4CC4)cc23)[nH]c1C` [Example 192, N-[5-cyclopropyl-3-(4,5-dimethyl-1H-imidazol-2-yl)-2-(4-fluorophenyl)-1-benzofuran-6-yl]methanesulfonamide], the IC50 in experiment [2] was 18 µM; in experiment [4] it was 10.3 µM.
